The text below walks through data of ChEMBL document CHEMBL3808387, “Discovery of IWP-051, a Novel Orally Bioavailable sGC Stimulator with Once-Daily Dosing Potential in Humans” (ACS Med Chem Lett, 2016).

The target in data set [1] is Soluble guanylate cyclase (Homo sapiens, UniProt O75343+P33402+Q02108+Q02153). Description: Activation of SGC in HEK293 cells assessed as cGMP production after 20 mins by LC-MS/MS analysis in presence of NO-donor DETA-NONOate. Format: cell-based.
Data set [2] is described as follows: Intrinsic clearance in human liver microsomes assessed per mg of protein at 2 uM after 10 to 30 mins by LC/MS/MS analysis in presence of NADPH. The format is ADME. Conditions: read-out: CLH. In general terms: Liver microsomes are vesicles of endoplasmic reticulum, rich in cytochrome P450 enzymes.
The nature of data set [3]: Intrinsic clearance in Sprague-Dawley rat liver microsomes assessed per mg of protein at 2 uM after 10 to 30 mins by LC/MS/MS analysis in presence of NADPH. The format is ADME. Conditions: read-out: CLH.
In data set [4] the target is Soluble guanylate cyclase (Homo sapiens) (UniProt Q02153+O75343+P33402+Q02108). Description: Activation of SGC in HEK293 cells assessed as cGMP production at 30 uM after 20 mins by LC-MS/MS analysis in presence of NO-donor DETA-NONOate. Format: cell-based.

Sequence of Soluble guanylate cyclase (Q02153 whole entry): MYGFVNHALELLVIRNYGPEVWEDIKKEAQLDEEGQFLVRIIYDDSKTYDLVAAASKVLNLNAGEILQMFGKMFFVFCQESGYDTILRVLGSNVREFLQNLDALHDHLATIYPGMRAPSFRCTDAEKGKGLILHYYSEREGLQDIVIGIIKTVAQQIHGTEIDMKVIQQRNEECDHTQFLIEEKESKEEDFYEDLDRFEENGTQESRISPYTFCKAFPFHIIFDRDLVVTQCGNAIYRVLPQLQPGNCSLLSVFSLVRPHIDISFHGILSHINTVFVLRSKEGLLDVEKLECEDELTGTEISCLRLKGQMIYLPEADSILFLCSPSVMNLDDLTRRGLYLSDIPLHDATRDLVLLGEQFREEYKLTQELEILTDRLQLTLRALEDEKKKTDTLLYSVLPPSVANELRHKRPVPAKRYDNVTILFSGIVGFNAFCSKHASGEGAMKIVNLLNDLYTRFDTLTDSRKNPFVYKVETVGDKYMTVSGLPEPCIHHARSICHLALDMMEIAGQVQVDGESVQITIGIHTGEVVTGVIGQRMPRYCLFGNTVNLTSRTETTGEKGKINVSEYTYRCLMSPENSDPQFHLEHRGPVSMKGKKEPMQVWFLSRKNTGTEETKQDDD
Sequence of Soluble guanylate cyclase (O75343 whole entry): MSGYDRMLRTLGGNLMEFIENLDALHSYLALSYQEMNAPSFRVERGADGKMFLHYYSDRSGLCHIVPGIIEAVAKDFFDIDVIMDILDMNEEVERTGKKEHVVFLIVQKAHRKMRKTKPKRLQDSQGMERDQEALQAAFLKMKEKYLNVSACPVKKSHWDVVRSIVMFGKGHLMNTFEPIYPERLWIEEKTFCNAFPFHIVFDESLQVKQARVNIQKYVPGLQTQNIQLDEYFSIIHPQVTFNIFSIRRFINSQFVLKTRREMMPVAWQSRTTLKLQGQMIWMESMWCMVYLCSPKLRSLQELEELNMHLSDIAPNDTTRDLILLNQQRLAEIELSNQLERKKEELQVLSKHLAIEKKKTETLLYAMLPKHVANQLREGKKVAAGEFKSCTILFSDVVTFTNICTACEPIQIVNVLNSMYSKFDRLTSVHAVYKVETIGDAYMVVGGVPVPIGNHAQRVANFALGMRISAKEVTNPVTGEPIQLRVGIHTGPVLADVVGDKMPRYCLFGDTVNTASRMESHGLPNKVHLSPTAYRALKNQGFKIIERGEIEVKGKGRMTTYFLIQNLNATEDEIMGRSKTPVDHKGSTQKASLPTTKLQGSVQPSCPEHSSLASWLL
Sequence of Soluble guanylate cyclase (P33402 whole entry): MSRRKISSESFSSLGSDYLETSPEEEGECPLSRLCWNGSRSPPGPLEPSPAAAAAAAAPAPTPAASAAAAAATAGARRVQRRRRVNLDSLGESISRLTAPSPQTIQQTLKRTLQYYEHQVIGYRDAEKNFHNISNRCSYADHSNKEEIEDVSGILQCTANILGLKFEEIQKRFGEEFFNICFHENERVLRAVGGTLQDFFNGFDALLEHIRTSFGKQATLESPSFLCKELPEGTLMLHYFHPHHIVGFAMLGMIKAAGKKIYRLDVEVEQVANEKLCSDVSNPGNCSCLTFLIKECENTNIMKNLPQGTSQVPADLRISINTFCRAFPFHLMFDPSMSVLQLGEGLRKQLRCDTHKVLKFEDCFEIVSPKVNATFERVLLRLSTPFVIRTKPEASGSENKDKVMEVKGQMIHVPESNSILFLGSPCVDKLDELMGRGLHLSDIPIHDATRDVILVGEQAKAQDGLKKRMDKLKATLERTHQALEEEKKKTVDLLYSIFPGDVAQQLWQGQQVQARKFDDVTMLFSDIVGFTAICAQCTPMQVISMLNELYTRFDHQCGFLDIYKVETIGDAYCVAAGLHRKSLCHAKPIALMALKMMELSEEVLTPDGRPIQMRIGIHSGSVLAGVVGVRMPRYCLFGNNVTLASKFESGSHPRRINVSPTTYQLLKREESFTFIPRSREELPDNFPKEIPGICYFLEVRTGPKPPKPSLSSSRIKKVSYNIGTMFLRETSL
Sequence of Soluble guanylate cyclase (Q02108 whole entry): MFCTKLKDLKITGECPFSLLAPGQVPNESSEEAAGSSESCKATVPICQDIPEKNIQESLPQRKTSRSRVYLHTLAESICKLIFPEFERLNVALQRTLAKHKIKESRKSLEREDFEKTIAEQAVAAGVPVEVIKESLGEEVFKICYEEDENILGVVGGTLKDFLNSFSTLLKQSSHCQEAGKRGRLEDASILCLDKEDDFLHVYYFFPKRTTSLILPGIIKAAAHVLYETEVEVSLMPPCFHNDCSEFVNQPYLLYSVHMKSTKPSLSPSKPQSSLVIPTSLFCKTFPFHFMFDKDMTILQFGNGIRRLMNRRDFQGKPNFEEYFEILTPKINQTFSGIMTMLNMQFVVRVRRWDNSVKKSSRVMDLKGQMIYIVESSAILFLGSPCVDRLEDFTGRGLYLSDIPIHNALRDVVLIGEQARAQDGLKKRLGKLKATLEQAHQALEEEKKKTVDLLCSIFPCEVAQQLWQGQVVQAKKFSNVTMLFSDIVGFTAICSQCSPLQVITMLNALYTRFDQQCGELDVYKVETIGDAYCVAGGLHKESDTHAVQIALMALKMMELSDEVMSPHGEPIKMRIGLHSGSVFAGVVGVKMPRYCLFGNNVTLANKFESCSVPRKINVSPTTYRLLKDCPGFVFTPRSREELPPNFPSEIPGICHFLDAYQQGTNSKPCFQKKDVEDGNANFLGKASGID

With `Oc1nc(-c2cc(-c3ccon3)n(Cc3ccccc3)n2)ncc1F`, in data set [1], the concentration for a half-maximal effect (EC50) amounted to 880 nM. Also, the values for the microsomal CLint at 2 µM in data set [2] and in data set [3] were 11 µL/min/mg and 10 µL/min/mg, respectively.
Take `Oc1nc(-c2cc(-c3ccon3)n(Cc3cccc(F)c3F)n2)ncc1F`: the 50% effective concentration (EC50) in data set [1] was determined as 370 nM. The microsomal CLint at 2 µM in data set [2] was determined as 7 µL/min/mg; in data set [3], 3 µL/min/mg.
As for `CC(C)(O)c1cnc(-c2cc(-c3ccon3)n(Cc3ccccc3F)n2)nc1O`, the microsomal CLint at 2 µM in data set [2] and in data set [3] was 8 µL/min/mg in each case. The maximum response (Emax) in data set [4] is 40%.
Take `CN(C)S(=O)(=O)c1cnc(-c2cc(-c3ccon3)n(Cc3ccccc3F)n2)nc1O`: the microsomal CLint at 2 µM in data set [2] came to 8 µL/min/mg; in data set [3], 24 µL/min/mg. In data set [4], the Emax worked out at 87%.
Regarding `N#Cc1cnc(-c2cc(-c3ccon3)n(Cc3ccccc3F)n2)nc1O`, the 50% effective concentration (EC50) in data set [1] was determined as 500 nM. Moreover, the microsomal CLint at 2 µM in data set [2] is 8 µL/min/mg; in data set [3] it was 14 µL/min/mg.
For `O=c1[nH]c(-c2cc(-c3ccon3)n(Cc3cccc(Cl)c3F)n2)ncc1F`, in data set [1], the 50% effective concentration (EC50) was 380 nM. For the same compound, the microsomal CLint at 2 µM came to 5 µL/min/mg in data set [2] and 2 µL/min/mg in data set [3].
As to `Oc1nc(-c2cc(-c3ncco3)n(Cc3ccccc3F)n2)ncc1F`, the concentration giving a half-maximal response (EC50) in data set [1] was 1500 nM. Further, the microsomal CLint at 2 µM came to 42 µL/min/mg in data set [2] and 68 µL/min/mg in data set [3].
On to `Oc1nc(-c2cc(-c3cocn3)n(Cc3ccccc3F)n2)ncc1F`, for which the values for the microsomal CLint at 2 µM in data set [2] and in data set [3] were 4 µL/min/mg and 9 µL/min/mg, respectively. In addition, in data set [4], the maximal effect (Emax) worked out at 78%.
Turning to `CN(c1ccccc1)S(=O)(=O)c1cnc(-c2cc(-c3ccon3)n(Cc3ccccc3F)n2)nc1O`, the concentration giving a half-maximal response (EC50) in data set [1] was determined as 730 nM. For the same compound, the microsomal CLint at 2 µM in data set [2] turned out to be 179 µL/min/mg; in data set [3], 58 µL/min/mg.
For `COc1nc(-c2cc(-c3ccon3)n(Cc3ccccc3F)n2)ncc1F`, the microsomal CLint at 2 µM in data set [2] was found to be 20 µL/min/mg.
As for `N#Cc1cc(-c2ncc(F)c(O)n2)nn1Cc1ccccc1F`, in data set [4], the Emax stood at 73%.
Regarding `Cc1cc(-c2cc(-c3ncc(F)c(O)n3)nn2Cc2ccccc2F)no1`, the microsomal CLint at 2 µM is 118 µL/min/mg in data set [2] and 249 µL/min/mg in data set [3]. Besides, the Emax in data set [4] came to 23%.
For the compound `O=C(Nc1cnc(-c2cc(-c3ccon3)n(Cc3ccccc3F)n2)nc1O)c1ccccc1`, the microsomal CLint at 2 µM in data set [2] stood at 14 µL/min/mg; in data set [3] it was 26 µL/min/mg. Besides, the Emax in data set [4] is 53%.
Take `Oc1ccnc(-c2cc(-c3ccon3)n(Cc3ccccc3F)n2)n1`: the microsomal CLint at 2 µM in data set [2] turned out to be 12 µL/min/mg; in data set [3], 15 µL/min/mg. Moreover, in data set [4], the Emax stood at 92%.
Regarding `Cc1cccc(Cn2nc(-c3ncc(F)c(O)n3)cc2-c2ccon2)c1F`, the EC50 in data set [1] was 240 nM. The microsomal CLint at 2 µM in data set [2] worked out at 8 µL/min/mg; in data set [3], 79 µL/min/mg.
`Oc1nc(-c2cc(-c3ccon3)n(Cc3sccc3F)n2)ncc1F`: the EC50 in data set [1] was determined as 280 nM. Moreover, the microsomal CLint at 2 µM in data set [2] was found to be 11 µL/min/mg; in data set [3] it was 13 µL/min/mg.
For `Oc1nc(-c2cc(-c3ccccn3)n(Cc3ccccc3F)n2)ncc1F`, the figures for the microsomal CLint at 2 µM in data set [2] and in data set [3] were 9 µL/min/mg and 39 µL/min/mg, respectively. For the same compound, the maximal effect (Emax) in data set [4] stood at 35%.
Take `Oc1nc(-c2cc(-c3ccon3)n(CCC(F)(F)F)n2)ncc1F`: the microsomal CLint at 2 µM came to 23 µL/min/mg in data set [2] and 32 µL/min/mg in data set [3].
Take `O=c1[nH]c(-c2cc(-c3ccsn3)n(Cc3ccccc3F)n2)ncc1F`: the EC50 in data set [1] stood at 180 nM. The results for the microsomal CLint at 2 µM in data set [2] and in data set [3] were 169 µL/min/mg and 129 µL/min/mg, respectively.
Consider `Oc1nc(-c2cc(-c3ccon3)n(Cc3ccccc3F)n2)ncc1C(F)(F)F`, for which the microsomal CLint at 2 µM was 19 µL/min/mg in data set [2] and 20 µL/min/mg in data set [3]. Further, the Emax in data set [4] was determined as 54%.
Take `Oc1nc(-c2cc(-c3ccon3)n(Cc3ncccc3F)n2)ncc1F`: the microsomal CLint at 2 µM in data set [2] is 15 µL/min/mg; in data set [3] it was 7 µL/min/mg. Further, the Emax in data set [4] worked out at 44%.
For `O=S(=O)(c1ccc(Cl)cc1)c1cnc(-c2cc(-c3ccon3)n(Cc3ccccc3F)n2)nc1O`, the 50% effective concentration (EC50) in data set [1] was 160 nM. In addition, the microsomal CLint at 2 µM in data set [2] is 6 µL/min/mg; in data set [3], 15 µL/min/mg.
As to `Cc1nc(-c2cc(-c3ccon3)n(Cc3ccccc3F)n2)nc(O)c1F`, the microsomal CLint at 2 µM came out at 9 µL/min/mg in data set [2] and 16 µL/min/mg in data set [3]. For the same compound, the Emax in data set [4] is 70%.
For the compound `O=c1[nH]c(-c2cc(-c3ccon3)n(Cc3ccc(F)cc3F)n2)ncc1F`, in data set [1], the 50% effective concentration (EC50) was determined as 530 nM. Moreover, the microsomal CLint at 2 µM in data set [2] and in data set [3] was 4 µL/min/mg throughout.
Regarding `Oc1nc(-c2cc(-c3ncon3)n(Cc3ccccc3F)n2)ncc1F`, the Emax in data set [4] is 68%. The microsomal CLint at 2 µM in data set [3] is 4 µL/min/mg.
Take `O=S(=O)(c1ccccc1)c1cnc(-c2cc(-c3ccon3)n(Cc3ccccc3F)n2)nc1O`: in data set [1], the EC50 came to 350 nM. In addition, the microsomal CLint at 2 µM amounted to 18 µL/min/mg in data set [2] and 27 µL/min/mg in data set [3].
With `Oc1nc(-c2cc(-c3ccon3)n(Cc3ccccc3F)n2)ncc1Cl`, the half-maximal effective concentration (EC50) in data set [1] came out at 590 nM. The microsomal CLint at 2 µM was 7 µL/min/mg in data set [2] and 5 µL/min/mg in data set [3].
With `N#Cc1cc(-c2ncc(F)c(=O)[nH]2)nn1Cc1ccccc1F`, the microsomal CLint at 2 µM was determined as 7 µL/min/mg in data set [2] and 9 µL/min/mg in data set [3].
For the compound `CS(=O)(=O)c1cnc(-c2cc(-c3ccon3)n(Cc3ccccc3F)n2)nc1O`, the half-maximal effective concentration (EC50) in data set [1] was 900 nM. In addition, the microsomal CLint at 2 µM was 15 µL/min/mg in data set [2] and 13 µL/min/mg in data set [3].
Regarding `Oc1nc(-c2cc(C3CC3)n(Cc3ccccc3F)n2)ncc1F`, the Emax in data set [4] was determined as 26%. In addition, the microsomal CLint at 2 µM in data set [3] was 10 µL/min/mg.
Take `O=c1[nH]c(-c2cc(-c3ccon3)n(CCC(F)(F)C(F)(F)F)n2)ncc1F`: the EC50 in data set [1] worked out at 1500 nM. Also, the microsomal CLint at 2 µM in data set [2] was determined as 6 µL/min/mg; in data set [3], 4 µL/min/mg.

A word on the EC50: it is the concentration needed to bring the measured effect to its halfway point. What is called Emax is the maximal effect, on the per cent scale that the assay sets.
